Experimental data as given in article PMC5369982, “Near infrared fluorescent imaging of choline kinase alpha expression and inhibition in breast tumors” (Oncotarget, 2017).
Like-named read-outs stand apart in the source and are kept apart here.

Tests used:
MCF7-CK+ cells = test: Cell viability, Trypan blue exclusion; type: cell-based, human; details: 17 h, ± SEM, 3 experiments
Protocol: (§1) MCF7 cells were plated for Trypan exclusion assays at 1.0 × 10^6 cells/well in 6-well plates and treated with MN58b or JAS239, synthesized in house. At 17 h, cells were collected by trypsinization, stained with Trypan Blue, and counted using a Neubauer hemocytometer. For 3-(4,5-Dimethylthiazol-2-yl)-2,5-diphenyltetrazolium bromide (MTT) assays, cells in 96-well plates (7.5 × 10^4 cells/well) were treated with JAS239 or MN58b overnight, and stained with 20 μL of 5 mg/mL MTT (Sigma-Aldrich) for 2 h, lysed with DMSO and scanned for absorbance using a SpectraMax M5 plate reader (Molecular Devices) at 550 nm, subtracting background absorbance at 690 nm from each sample.
(§2) Supplementary Figure 2: Breast cancer cell viability in response to ChoK inhibitors. (A–D) Cell viability measurements via […]
(§3) (A) or JAS239 (B). MTT assays were performed on MDA-MB-231 and 4175-Luc+ (C, D) cells exposed to MN58b (C) or JAS239 (D).
(§4) Values are reported relative to untreated control groups and represent ± SEM for 3 separate experiments. At higher JAS239 concentrations, the MTT assay was used as JAS239 interfered with Trypan blue counting. There was no overlap in absorbance readings between the MTT formazan product and JAS239.
(§5) (1 picture or pasted object on this page, not shown here)

MCF7-EV cells = test: Cell viability, Trypan blue exclusion; type: cell-based, human; details: 17 h, ± SEM, 3 experiments
Protocol: as §1, §2, §3, §4, §5

MDA-MB-231 tumors = test: Histopathology of treated tumors (H&E, Ki67, caspase-3); type: in vivo, mouse; details: 5 days i.p.; MN58b 2 mg/kg, JAS239 4 mg/kg; vs control
Protocol: (§6) A cohort of 15 mice was inoculated with MDA-MB-231 cells. When a volume of 300 μL was reached, tumors were scanned using MRS. Tumor volumes were measured using T2-weighted images. The animals were separated into treatment groups, and for 5 consecutive days each group was injected i.p. with 100 μL of DMSO/saline vehicle (n = 5), 2 mg/kg MN58b (n = 4), or 4 mg/kg JAS239 (n = 3). Initial cohort sizes were 5 per condition, but some animals had to be removed from the study because the treatment was so effective that we were unable to place voxels within post-treatment tumors that were too small. Follow-up MRI/MRS scanning was performed on day 7 to assess tumor growth inhibition and changes in metabolite levels. After imaging, blood was collected into heparin-coated tubes by cardiac puncture. Resected tumors were embedded in Optimum Cryo-Temperature (Sakura Finetek), flash-frozen in liquid nitrogen, and stored at –80 °C. Blood samples were submitted to the Ryan Veterinary Clinic Diagnostic labs for toxicology.
Hematoxylin and eosin staining and immunohistochemistry was performed as described previously. Caspase-3 (R&D Systems AF835) and Ki67 (Abcam ab16667) antibody staining was performed on a Bond Max automated staining system (Leica Microsystems) using the Bond Intense R staining kit (Leica Microsystems DS9263). An Aperio Scan Scope OS (Aperio Technology) was used to scan slides, and the Image Scope nuclear staining algorithm (version 9; Aperio Technology) was used to quantify Ki67 and caspase-3 positive nuclei in representative regions of each slide.

[1] = Blood toxicology after the 5-day treatment; type: in vivo; details: 5 days i.p.; MN58b 2 mg/kg, JAS239 4 mg/kg
Protocol: as §6
Supplementary Figure 6: Both ChoKα inhibitors show early signs of tumor growth inhibition and apoptosis, however JAS239 is better tolerated in animals. (A) Vehicle-treated tumors increased in size during the treatment regimen, whereas the tumor volumes of MN58b and JAS239 treated mice were unchanged. […]

ChoKα = ChoKα (Homo sapiens, UniProt P35790); test: ChoKα activity assay (14C-choline phosphorylation to 14C-PC in cells); type: cell-based; design: endogenous in cells; host or cells: MCF7-EV, MCF7-CK+ (stably overexpressing ChoK), MDA-MB-231, 4175-Luc+; details: analyzed after 2 h, ± SEM, 3 experiments, read-out: IC50 (14C-PC production)
Protocol: Cells in 6-well plates (1.0 × 10^6 cells/well) were incubated for 24 h then treated with JAS239 or MN58b. After 1 h, cells were spiked for 1 h with 0.5 μCi/mL [methyl-^14C]-choline (PerkinElmer) and fixed with trichloroacetic acid. Aqueous cellular extracts were separated by thin layer chromatography (TLC) and the ^14C-PC production measured by autoradiography on a Fujifilm FLA-7000 using previously described methods. […]
Supplementary Figure 1: Characterization of ChoKα in a panel of human breast cancer cell lines. (A) Determination of
ChoKα expression by Western blot confirms elevated ChoKα protein found in MCF7-CK+ cells. (B) Conversion of 14C-choline to 14C-PC
follows the pattern expected from ChoKα expression levels in (A). (C–F) Dose-response curves comparing the effect of MN58b ( C, D) or
JAS239 (E, F) on 14C-choline phosphorylation in MCF7-EV and MCF7-CK+ cells (C, E) or MDA-MB-231 and 4175-Luc+ cells (D, F).
Values are reported as a percentage of the untreated EV group (for MCF7 cells) or untreated MDA-MB-231 group (for MDA-MB-231 and
4175-Luc+), and represent ± SEM for 3 separate experiments.

Sequence of ChoKα (P35790 whole entry): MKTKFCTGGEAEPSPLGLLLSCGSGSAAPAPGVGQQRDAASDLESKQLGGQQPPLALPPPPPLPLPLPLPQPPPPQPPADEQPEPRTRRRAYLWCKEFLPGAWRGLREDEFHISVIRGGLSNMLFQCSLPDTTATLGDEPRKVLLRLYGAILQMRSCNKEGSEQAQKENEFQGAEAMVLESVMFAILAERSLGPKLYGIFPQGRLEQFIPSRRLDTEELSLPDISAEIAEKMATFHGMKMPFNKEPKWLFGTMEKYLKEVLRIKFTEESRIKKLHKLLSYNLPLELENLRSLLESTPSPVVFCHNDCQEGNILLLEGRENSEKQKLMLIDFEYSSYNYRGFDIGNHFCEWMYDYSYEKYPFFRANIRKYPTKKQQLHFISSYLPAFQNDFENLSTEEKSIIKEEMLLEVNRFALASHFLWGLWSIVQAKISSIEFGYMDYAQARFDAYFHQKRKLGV

Compound	EC50 (MCF7-CK+ cells) [µM]	EC50 (MCF7-EV cells) [µM]	Caspase-3 levels (MDA-MB-231 tumors)	Cell density (H&E) (MDA-MB-231 tumors)	Percentage of Ki67-positive cells (MDA-MB-231 tumors)	Toxicology [1]	IC50 (ChoKα; 4175-Luc+ cells) [µM]	IC50 (ChoKα; MCF7-CK+ cells) [µM]	IC50 (ChoKα; MCF7-EV cells) [µM]	IC50 (ChoKα; MDA-MB-231 cells) [µM]
CC1(C)C(=C/C=C/C=C/C=C/C2=[N+](CCO)c3ccccc3C2(C)C)N(CCO)c2ccccc21 [JAS239]	5.33 ± 0.84	4.04 ± 0.55	higher caspase-3 levels	significant reduction in cell density	significantly reduced	No observable or measurable toxicity	9.89 ± 0.24	10.3 ± 2.48	11.1 ± 5.64	9.92 ± 0.22
MN58b [reference compound]	6.86 ± 0.43	3.29 ± 0.48	higher caspase-3 levels	significant reduction in cell density	significantly reduced	elevation of blood urea nitrogen	4.59 ± 0.55	2.36 ± 0.28	3.85 ± 0.42	4.36 ± 1.37
